# Assay results taken from patent US10493091B2, “Method for storing P1, P4-bis(5′-uridyl)teraphosphate crystals” (Yamasa Corporation, priority 2015, dated 2019).
# Experiments:
# [1] = Stability test of packed UP4U crystals, four weeks of storage, HPLC purity; type: physicochemical; conditions: for decrease in HPLC purity: regardless of the crystal pH
# Method: (Packing of Test Sample) An amount of approximately 20 mg of each test sample was put into a pouch made of low-density polyethylene and sealed by heat sealing. This pouch was further put into a pouch made of low-density polyethylene and sealed by heat sealing. This pouch was still further put into a pouch made of low-density polyethylene and sealed by heat sealing. This pouch was put into a pouch made of aluminum-metallized film and sealed by heat sealing, thus preparing a sample for stability test. (Stability Test) Packed samples were put into thermostatic baths at 5° C., 25° C., 40° C., and 60° C., respectively, and stored for four weeks. (Analysis) For each sample zero days after the start of the stability test and samples of the same type at four weeks of storage at the different temperatures, the packing by sealing was opened and each of the test samples was dissolved in deionized water. This solution was analyzed by HPLC and, based on the analysis result, evaluated in terms of stability. The conditions of the measurement using HPLC in this analysis were as follows. [table] The evaluation was made by defining the value obtained by subtracting the HPLC purity (%) of crystals zero days after the start of the stability test from the HPLC purity (%) of the crystals at four weeks of storage as a rate of change (%).
# [2] = pH measurement of UP4U crystals (crystal pH); type: physicochemical; conditions: 1.0 g dissolved in 20 mL distilled water
# Method: The term crystal pH in the present invention refers to the value of pH of crystals measured with 1 g of crystals dissolved in 20 mL of water. The control of the pH of UP4U crystals within a desired range of values is possible, for example, by controlling the pH of an original solution for use in crystallization. To control the pH, it is sufficient to use, as necessary, an arbitrary acid or alkali capable of being used for production of raw materials or the like for pharmaceutical products. An arbitrary one selected from hydrochloric acid, nitric acid, phosphoric acid, and so on can be used as the acid and an arbitrary one selected from sodium hydroxide, sodium carbonate, sodium hydrogen carbonate, and so on can be used as the alkali.
# Control of UP4U Crystals with Different pHs UP4U crystals prepared by a known method were dissolved in deionized water. Various phosphoric acid aqueous solutions or sodium hydroxide aqueous solutions were each added to the solution containing UP4U dissolved therein to prepare solutions having different pHs (hereinafter, referred to as “original solutions”).
# Ethanol was put into each of the original solutions to make the original solution lightly cloudy, followed by addition of a small amount of UP4U crystals and stirring for a dozen hours. After confirmation of crystal precipitation, ethanol was further put into each of the solutions, the solution was stirred, and crystals were then separated from the solution using a centrifuge. The obtained various crystals were dried with a circulation dryer to prepare various UP4U crystals having different pHs.
# (pH Measurement) Water was sufficiently boiled and then cooled in a state where a carbon dioxide absorption tube was connected, thus preparing distilled water. An amount of 1.0 g of each test sample was dissolved in 20 mL of the prepared distilled water. The pH (crystal pH) of this solution was measured.
smiles,measurement,setting,value
"O=c1ccn([C@@H]2O[C@H](COP(=O)(O)OP(=O)(O)OP(=O)(O)OP(=O)(O)OC[C@H]3O[C@@H](n4ccc(=O)[nH]c4=O)[C@H](O)[C@@H]3O)[C@@H](O)[C@H]2O)c(=O)[nH]1 [UP4U crystals, P^1,P^4-bis(5′-uridyl)tetraphosphate]",rate of change in HPLC purity,"[1]; 5° C., four weeks of storage, crystal pH 4.60",0.01%
same,rate of change in HPLC purity,"[1]; 5° C., four weeks of storage, crystal pH 5.16",0.00%
same,rate of change in HPLC purity,"[1]; 5° C., four weeks of storage, crystal pH 5.54",0.00%
same,rate of change in HPLC purity,"[1]; 5° C., four weeks of storage, crystal pH 5.64",0.00%
same,rate of change in HPLC purity,"[1]; 5° C., four weeks of storage, crystal pH 5.97",0.00%
same,rate of change in HPLC purity,"[1]; 5° C., four weeks of storage, crystal pH 6.32",0.00%
same,rate of change in HPLC purity,"[1]; 5° C., four weeks of storage, crystal pH 6.66",−0.01%
same,rate of change in HPLC purity,"[1]; 5° C., four weeks of storage, crystal pH 6.91",0.00%
same,rate of change in HPLC purity,"[1]; 5° C., four weeks of storage, crystal pH 7.12",0.00%
same,rate of change in HPLC purity,"[1]; 5° C., four weeks of storage, crystal pH 7.43",0.01%
same,rate of change in HPLC purity,"[1]; 5° C., four weeks of storage, crystal pH 7.97",0.03%
same,rate of change in HPLC purity,"[1]; 25° C., four weeks of storage, crystal pH 4.60",−0.01%
same,rate of change in HPLC purity,"[1]; 25° C., four weeks of storage, crystal pH 5.16",−0.02%
same,rate of change in HPLC purity,"[1]; 25° C., four weeks of storage, crystal pH 5.54",−0.02%
same,rate of change in HPLC purity,"[1]; 25° C., four weeks of storage, crystal pH 5.64",−0.01%
same,rate of change in HPLC purity,"[1]; 25° C., four weeks of storage, crystal pH 5.97",−0.02%
same,rate of change in HPLC purity,"[1]; 25° C., four weeks of storage, crystal pH 6.32",−0.01%
same,rate of change in HPLC purity,"[1]; 25° C., four weeks of storage, crystal pH 6.66",−0.03%
same,rate of change in HPLC purity,"[1]; 25° C., four weeks of storage, crystal pH 6.91",−0.02%
same,rate of change in HPLC purity,"[1]; 25° C., four weeks of storage, crystal pH 7.12",−0.02%
same,rate of change in HPLC purity,"[1]; 25° C., four weeks of storage, crystal pH 7.43",−0.01%
same,rate of change in HPLC purity,"[1]; 25° C., four weeks of storage, crystal pH 7.97",−0.01%
same,rate of change in HPLC purity,"[1]; 40° C., four weeks of storage, crystal pH 4.60",−0.05%
same,rate of change in HPLC purity,"[1]; 40° C., four weeks of storage, crystal pH 5.16",−0.04%
same,rate of change in HPLC purity,"[1]; 40° C., four weeks of storage, crystal pH 5.54",−0.03%
same,rate of change in HPLC purity,"[1]; 40° C., four weeks of storage, crystal pH 5.64",−0.02%
same,rate of change in HPLC purity,"[1]; 40° C., four weeks of storage, crystal pH 5.97",−0.03%
same,rate of change in HPLC purity,"[1]; 40° C., four weeks of storage, crystal pH 6.32",−0.02%
same,rate of change in HPLC purity,"[1]; 40° C., four weeks of storage, crystal pH 6.66",−0.04%
same,rate of change in HPLC purity,"[1]; 40° C., four weeks of storage, crystal pH 6.91",−0.04%
same,rate of change in HPLC purity,"[1]; 40° C., four weeks of storage, crystal pH 7.12",−0.08%
same,rate of change in HPLC purity,"[1]; 40° C., four weeks of storage, crystal pH 7.43",−0.15%
same,rate of change in HPLC purity,"[1]; 40° C., four weeks of storage, crystal pH 7.97",−0.12%
same,rate of change in HPLC purity,"[1]; 60° C., four weeks of storage, crystal pH 4.60",−0.25%
same,rate of change in HPLC purity,"[1]; 60° C., four weeks of storage, crystal pH 5.16",−0.08%
same,rate of change in HPLC purity,"[1]; 60° C., four weeks of storage, crystal pH 5.54",−0.07%
same,rate of change in HPLC purity,"[1]; 60° C., four weeks of storage, crystal pH 5.64",−0.07%
same,rate of change in HPLC purity,"[1]; 60° C., four weeks of storage, crystal pH 5.97",−0.08%
same,rate of change in HPLC purity,"[1]; 60° C., four weeks of storage, crystal pH 6.32",−0.14%
same,rate of change in HPLC purity,"[1]; 60° C., four weeks of storage, crystal pH 6.66",−0.18%
same,rate of change in HPLC purity,"[1]; 60° C., four weeks of storage, crystal pH 6.91",−0.24%
same,rate of change in HPLC purity,"[1]; 60° C., four weeks of storage, crystal pH 7.12",−0.46%
same,rate of change in HPLC purity,"[1]; 60° C., four weeks of storage, crystal pH 7.43",−0.50%
same,rate of change in HPLC purity,"[1]; 60° C., four weeks of storage, crystal pH 7.97",−0.87%
same,rate of change in HPLC purity,"[1]; four weeks, one of: (1) 0° C. or more and less than 25° C., (2) 25° C. or more and less than 40° C. and crystal pH 4.5 to 8.0, (3) 40° C. or more and less than 60° C. and crystal pH 5.0 to 6.4",≤ 0.15%
same,rate of change in HPLC purity,"[1]; four weeks, one of: (4) 0° C. or more and less than 25° C., (5) 25° C. or more and less than 40° C. and crystal pH 4.5 to 7.4, (6) 40° C. or more and less than 60° C. and crystal pH 5.2 to 6.2",≤ 0.10%
same,rate of change in HPLC purity,"[1]; four weeks, one of: (7) 0° C. or more and less than 25° C., (8) 25° C. or more and less than 40° C. and crystal pH 4.6 to 6.6",≤ 0.05%
same,decrease in HPLC purity,[1]; storage temperature 0° C. or more and less than 25° C.,substantially no decrease
same,decrease in HPLC purity,[1]; storage temperature of 60° C. or more,may significantly decrease
same,Crystal pH,[2]; original liquid pH 2.50,4.60
same,Crystal pH,[2]; original liquid pH 3.00,5.16
same,Crystal pH,[2]; original liquid pH 3.50,5.54
same,Crystal pH,[2]; original liquid pH 4.00,5.64
same,Crystal pH,[2]; original liquid pH 5.50,5.97
same,Crystal pH,[2]; original liquid pH 6.50,6.32
same,Crystal pH,[2]; original liquid pH 7.40,6.66
same,Crystal pH,[2]; original liquid pH 7.80,6.91
same,Crystal pH,[2]; original liquid pH 8.00,7.12
same,Crystal pH,[2]; original liquid pH 8.10,7.43
same,Crystal pH,[2]; original liquid pH 8.20,7.97
